Here are results for 23 molecules from US11267825B2 (AICURIS GMBH & CO. KG, priority 2017, dated 2022).

Where only a bound is given, the exact number is not on record here.

Assay [1] deals with HBV. Put plainly: Determination of HBV DNA from the supernatants of HepAD38 cells (anti-HBV activity). Format: cell-based, hepatitis B virus. As to conditions: Hepatitis B virus, 144 h; HBV DNA in HepAD38 supernatant at day 6; read-out: Cell Activity (EC50). In outline:
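EC50 values were obtained by non-linear regression of HBV DNA copy numbers measured by qPCR against pCH-9/3091 plasmid standards. The DNA came from filtered supernatants collected on day 6. Before that, tetracycline-withdrawn HepAD38 cells had been exposed to serial half-log compound dilutions, with tetracycline-treated cells as the non-producing control.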

The target of assay [2] is HBV core protein (UniProt P03146). It counts as biochemical. Particulars: read-out: Assembly Activity (IC50); BODIPY-FL labelled core protein, assembly started with NaCl, read after 6 min. The procedure:
Biochemical Capsid Assembly Assay
The screening for assembly effector activity was done based on a fluorescence quenching assay published by Zlotnick et al. (2007). The C-terminal truncated core protein containing 149 amino acids of the N-terminal assembly domain was fused to a unique cysteine residue at position 150 and was expressed in E. coli using the pET expression system (Merck Chemicals, Darmstadt). Purification of core dimer protein was performed using a sequence of size exclusion chromatography steps. In brief, the cell pellet from 1 L BL21 (DE3) Rosetta2 culture expressing the coding sequence of core protein cloned NdeI/XhoI into expression plasmid pET21b was treated for 1 h on ice with a native lysis buffer (Qproteome Bacterial Protein Prep Kit; Qiagen, Hilden). After a centrifugation step the supernatant was precipitated during 2 h stirring on ice with 0.23 g/ml of solid ammonium sulfate. Following further centrifugation the resulting pellet was resolved in buffer A (100 mM Tris, pH 7.5; 100 mM NaCl; 2 mM DTT) and was subsequently loaded onto a buffer A equilibrated CaptoCore 700 column (GE HealthCare, Frankfurt). The column flow through containing the assembled HBV capsid was dialyzed against buffer N (50 mM NaHCO3 pH 9.6; 5 mM DTT) before urea was added to a final concentration of 3M to dissociate the capsid into core dimers for 1.5 h on ice. The protein solution was then loaded onto a 1 L Sephacryl S300 column. After elution with buffer N core dimer containing fractions were identified by SDS-PAGE and subsequently pooled and dialyzed against 50 mM HEPES pH 7.5; 5 mM DTT. To improve the assembly capacity of the purified core dimers a second round of assembly and disassembly starting with the addition of 5 M NaCl and including the size exclusion chromatography steps described above was performed. From the last chromatography step core dimer containing fractions were pooled and stored in aliquots at concentrations between 1.5 to 2.0 mg/ml at −80° C.
Immediately before labelling the core protein was reduced by adding freshly prepared DTT in a final concentration of 20 mM. After 40 min incubation on ice storage buffer and DTT was removed using a Sephadex G-25 column (GE HealthCare, Frankfurt) and 50 mM HEPES, pH 7.5. For labelling 1.6 mg/ml core protein was incubated at 4° C. and darkness overnight with BODIPY-FL maleimide (Invitrogen, Karlsruhe) in a final concentration of 1 mM. After labelling the free dye was removed by an additional desalting step using a Sephadex G-25 column. Labelled core dimers were stored in aliquots at 4° C. In the dimeric state the fluorescence signal of the labelled core protein is high and is quenched during the assembly of the core dimers to high molecular capsid structures. The screening assay was performed in black 384 well microtiter plates in a total assay volume of 10 μl using 50 mM HEPES pH 7.5 and 1.0 to 2.0 μM labelled core protein. Each screening compound was added in 8 different concentrations using a 0.5 log-unit serial dilution starting at a final concentration of 100 μM, 31.6 μM or 10 μM. In any case the DMSO concentration over the entire microtiter plate was 0.5%. The assembly reaction was started by the injection of NaCl to a final concentration of […] which induces the assembly process to approximately 25% of the maximal quenched signal. 6 min after starting the reaction the fluorescence signal was measured using a Clariostar plate reader (BMG Labtech, Ortenberg) with an excitation of 477 nm and an emission of 525 nm. As 100% and 0% assembly control HEPES buffer containing 2.5 M and 0 M NaCl was used. Experiments were performed thrice in triplicates. EC50 values were calculated by non-linear regression analysis using the Graph Pad Prism 6 software (GraphPad Software, La Jolla, USA).

Chain of HBV core protein (P03146 whole entry, looked up): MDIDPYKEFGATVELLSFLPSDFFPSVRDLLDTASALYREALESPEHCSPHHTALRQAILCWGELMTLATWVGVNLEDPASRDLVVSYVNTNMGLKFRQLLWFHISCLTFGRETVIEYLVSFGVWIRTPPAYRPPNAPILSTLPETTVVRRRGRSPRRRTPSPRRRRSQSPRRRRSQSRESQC

As usually defined, the EC50 is the midpoint of the concentration-response curve. The IC50 is the midpoint of a concentration-inhibition curve. Take `O=C(c1cc2ccccc2[nH]1)N1CCc2nc(NCC3(c4ccccn4)CCC3)sc2C1` [Example 432, 5-(1H-indole-2-carbonyl)-N-{[1-(pyridin-2-yl)cyclobutyl]methyl}-4H,5H,6H,7H-[1,3]thiazolo[5,4-c]pyridin-2-amine]: the EC50 in assay [1] was below 1 µM. Further, the IC50 in assay [2] is below 5 µM.
The matching figures for `Nc1nc2c(s1)CN(C(=O)c1cc3cc(Cl)ccc3[nH]1)CC2` [Example 155, 5-(5-chloro-1H-indole-2-carbonyl)-4H,5H,6H,7H-[1,3]thiazolo[5,4-c]pyridin-2-amine]: 1 to 10 µM and below 5 µM.
The matching figures for `N#CC1(C(=O)Nc2nc3c(s2)CN(C(=O)c2cc4ccccc4[nH]2)CC3)CC1` [Example 336, 1-cyano-N-[5-(1H-indole-2-carbonyl)-4H,5H,6H,7H-[1,3]thiazolo[5,4-c]pyridin-2-yl]cyclopropane-1-carboxamide]: below 1 µM and 5 to 10 µM.
The matching figures for `Nc1nc2c(s1)CN(C(=O)c1cc3c(C(F)(F)F)cccc3[nH]1)CC2` [Example 146, 5-(4-(trifluoromethyl)-1H-indole-2-carbonyl)-4H,5H,6H,7H-[1,3]thiazolo[5,4-c]pyridin-2-amine]: below 1 µM and below 5 µM.
With `Nc1nc2c(s1)CN(C(=O)c1cc3c(Br)ccc(F)c3[nH]1)CC2` [Example 90, 5-(4-bromo-7-fluoro-1H-indole-2-carbonyl)-4H,5H,6H,7H-[1,3]thiazolo[5,4-c]pyridin-2-amine], in assay [1], the 50% effective concentration (EC50) was below 1 µM. In assay [2], the IC50 was below 5 µM.
With `O=C(c1cc2c(CO)cccc2[nH]1)N1CCc2nc(NCC3(O)CCC3)sc2C1` [Example 367, 1-[({5-[4-(hydroxymethyl)-1H-indole-2-carbonyl]-4H,5H,6H,7H-[1,3]thiazolo[5,4-c]pyridin-2-yl}amino)methyl]cyclobutan-1-ol], the EC50 in assay [1] is below 1 µM. Besides, the half-inhibitory concentration (IC50) in assay [2] was below 100 µM.
`CCOC(=O)N1CCC(Nc2nc3c(s2)CN(C(=O)c2cc4ccccc4[nH]2)CC3)CC1` [Example 5, Ethyl 4-{[5-(1H-indole-2-carbonyl)-4H,5H,6H,7H-[1,3]thiazolo[5,4-c]pyridin-2-yl]amino}piperidine-1-carboxylate]: the EC50 in assay [1] is below 1 µM. In assay [2], the 50% inhibitory concentration (IC50) is 5 to 10 µM.
The matching figures for `Nc1nc2c(s1)CCN(C(=O)c1cc3ccccc3[nH]1)CC2` [Example 25, 6-(1H-indole-2-carbonyl)-4H,5H,6H,7H,8H-[1,3]thiazolo[4,5-d]azepin-2-amine]: below 100 µM and below 100 µM.
The matching figures for `Nc1nc2c(s1)CN(C(=O)c1cc3ccc(Cl)cc3[nH]1)CC2` [Example 156, 5-(6-chloro-1H-indole-2-carbonyl)-4H,5H,6H,7H-[1,3]thiazolo[5,4-c]pyridin-2-amine]: below 1 µM and below 5 µM.
`CC(C)(C)CC(=O)Nc1nc2c(s1)CN(C(=O)c1cc3c(Cl)cccc3[nH]1)CC2` [Example 263, N-[5-(4-chloro-1H-indole-2-carbonyl)-4H,5H,6H,7H-[1,3]thiazolo[5,4-c]pyridin-2-yl]-3,3-dimethylbutanamide]: the EC50 in assay [1] was below 1 µM. For the same molecule, the IC50 in assay [2] is 5 to 10 µM.
The matching figures for `CCc1ccc(F)c2[nH]c(C(=O)N3CCc4nc(NCC5CCOC5)sc4C3)cc12` (stereo not shown) [Example 254, 5-(4-ethyl-7-fluoro-1H-indole-2-carbonyl)-N-[(oxolan-3-yl)methyl]-4H,5H,6H,7H-[1,3]thiazolo[5,4-c]pyridin-2-amine]: below 1 µM and below 5 µM.
The matching figures for `O=C(c1cc2ccc(Cl)cc2[nH]1)N1CCc2nc(NC3(CO)CCC3)sc2C1` [Example 299, (1-{[5-(6-chloro-1H-indole-2-carbonyl)-4H,5H,6H,7H-[1,3]thiazolo[5,4-c]pyridin-2-yl]amino}cyclobutyl)methanol]: below 1 µM and below 5 µM.
The matching figures for `CC(Nc1nc2c(s1)CN(C(=O)c1cc3ccccc3[nH]1)CC2)C1CCOC1` (stereo not shown) [Example 247, 5-(1H-indole-2-carbonyl)-N-[1-(oxolan-3-yl)ethyl]-4H,5H,6H,7H-[1,3]thiazolo[5,4-c]pyridin-2-amine]: below 1 µM and below 5 µM.
In the case of `Nc1nc2c(s1)CN(C(=O)c1cc3c(Cl)cc(F)cc3[nH]1)CC2` [Example 167, 5-(4-chloro-6-fluoro-1H-indole-2-carbonyl)-4H,5H,6H,7H-[1,3]thiazolo[5,4-c]pyridin-2-amine], in assay [1], the half-maximal effective concentration (EC50) is below 1 µM. Moreover, in assay [2], the 50% inhibitory concentration (IC50) is below 5 µM.
`CCOc1nc2c(s1)CN(C(=O)c1cc3ccccc3[nH]1)CC2` [Example 152, 2-{2-ethoxy-4H,5H,6H,7H-[1,3]thiazolo[5,4-c]pyridine-5-carbonyl}-1H-indole]: the 50% effective concentration (EC50) in assay [1] was 1 to 10 µM. Further, in assay [2], the IC50 is below 100 µM.
On to `O=C(c1cc2ccccc2[nH]1)N1CCc2nc(NCCc3c[nH]cn3)sc2C1` [Example 286, N-[2-(1H-imidazol-4-yl)ethyl]-5-(1H-indole-2-carbonyl)-4H,5H,6H,7H-[1,3]thiazolo[5,4-c]pyridin-2-amine], for which the half-maximal effective concentration (EC50) in assay [1] is below 1 µM. In addition, the half-inhibitory concentration (IC50) in assay [2] is below 5 µM.
The matching figures for `O=C(c1cc2c(Cl)cc(F)cc2[nH]1)N1CCc2nc(NCC3(O)CCC3)sc2C1` [Example 313, 1-({[5-(4-chloro-6-fluoro-1H-indole-2-carbonyl)-4H,5H,6H,7H-[1,3]thiazolo[5,4-c]pyridin-2-yl]amino}methyl)cyclobutan-1-ol]: below 1 µM and below 5 µM.
The matching figures for `Cc1nc2c(s1)CN(C(=O)c1cc3c(C)cccc3[nH]1)CC2` [Example 184, 4-methyl-2-{2-methyl-4H,5H,6H,7H-[1,3]thiazolo[5,4-c]pyridine-5-carbonyl}-1H-indole]: below 1 µM and below 5 µM.
The matching figures for `O=C(c1cc2ccccc2[nH]1)N1CCc2nc(N[C@H]3CC[C@@H](O)C3)sc2C1` [Example 396, (1R,3S)-3-{[5-(1H-indole-2-carbonyl)-4H,5H,6H,7H-[1,3]thiazolo[5,4-c]pyridin-2-yl]amino}cyclopentan-1-ol]: below 1 µM and below 5 µM.
Turning to `O=C(c1cc2ccccc2[nH]1)N1CCc2nc(NCC3(O)COC3)sc2C1` [Example 44, 3-({[5-(1H-indole-2-carbonyl)-4H,5H,6H,7H-[1,3]thiazolo[5,4-c]pyridin-2-yl]amino}methyl)oxetan-3-ol], in assay [1], the 50% effective concentration (EC50) is below 1 µM. Also, the concentration for half-maximal inhibition (IC50) in assay [2] was below 5 µM.
For the molecule `O=C(c1cc2ccccc2[nH]1)N1CCc2nc(NC3CC(F)(F)C3)sc2C1` [Example 416, N-(3,3-difluorocyclobutyl)-5-(1H-indole-2-carbonyl)-4H,5H,6H,7H-[1,3]thiazolo[5,4-c]pyridin-2-amine], in assay [1], the EC50 was below 1 µM. Moreover, the IC50 in assay [2] was in the range of 5 to 10 µM.
In the case of `CC(F)(F)c1cc(F)cc2[nH]c(C(=O)N3CCc4nc(NC(=O)C5CCOCC5)sc4C3)cc12` [Example 401, N-{5-[4-(1,1-difluoroethyl)-6-fluoro-1H-indole-2-carbonyl]-4H,5H,6H,7H-[1,3]thiazolo[5,4-c]pyridin-2-yl}oxane-4-carboxamide], the concentration giving a half-maximal response (EC50) in assay [1] is below 1 µM. Besides, the IC50 in assay [2] is below 5 µM.
As for `Nc1nc2c(s1)CN(C(=O)c1cc3cccc(OC(F)F)c3[nH]1)CC2` [Example 173, 5-(7-(difluoromethoxy)-1H-indole-2-carbonyl)-4H,5H,6H,7H-[1,3]thiazolo[5,4-c]pyridin-2-amine], the EC50 in assay [1] was 1 to 10 µM. In addition, the IC50 in assay [2] is below 5 µM.
